In patent publication US20170065564A1, “BIS-CYCLIC GUANIDINE COMPOUND COMPOSITIONS, METHODS OF USE AND TREATMENT THEREOF” (University of South Florida, priority 2014, published 2017):

Tests used:
Enterobacter cloacae = assay: MIC micro broth dilution assay; format: cell-based; set-up: key to stacked score activity, 100/MIC, E: stacked score = 100/MIC; settings: for stacked score activity, 100/MIC, E: E. cloacae; for concentration inhibiting 90% of isolates / concentration inhibiting 70% of strains: panel of E. cloacae clinical isolates
Procedure, shortened: (§1)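 Strains were multidrug-resistant clinical isolates grown in LB (Gram-negative) or TSB (Gram-positive), diluted 1:1,000 before compound addition.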

Enterococcus faecium = assay: MIC micro broth dilution assay; format: cell-based; set-up: key to stacked score activity, 100/MIC, E: stacked score = 100/MIC; settings: for stacked score activity, 100/MIC, E: E. faecium
Procedure, shortened: as §1

P. aeruginosa [1] = assay: MIC reanalysis in the presence of the efflux inhibitor reserpine; format: cell-based, Pseudomonas aeruginosa
Excerpt: (§2) Given the minor variations observed in MIC for three of the Gram-negative organisms, and that these particular bacteria are renowned for efflux detoxification of antibacterial agents, we hypothesized that the differences observed likely relate to variation in efflux pump activity between strains. […] The effects observed appear to be universal, regardless of strain or compound tested. […] It should be noted that the data presented herein represents a worst-case scenario. […] Similar data was returned for all front runner agents, against all 10 isolates of the three Gram-negative organisms (data not shown). These findings support the hypothesis that inherent efflux mechanisms of certain Gram-negative organisms result in MIC variations for the lead bis-cyclic guanidines between clinical isolates.

P. aeruginosa [2] = format: cell-based, Pseudomonas aeruginosa; settings: 8 passages, concentration doubled each day
Protocol: ESKAPE pathogens were grown overnight in liquid media at 37° C. These cultures were then diluted 1:100 in fresh media, and seeded into a 96-well plate. Lead bis-cyclic guanidines or control agents were added to respective wells at half MIC concentrations. […] These were then grown overnight, and the procedure repeated for a total of eight days.

K. pneumoniae = assay: MIC reanalysis in the presence of the efflux inhibitor reserpine; format: cell-based, Klebsiella pneumoniae; settings: K. pneumoniae strain 1441; with 100 μM of reserpine
Excerpt: as §2

E. cloacae = assay: as above; format: cell-based, Enterobacter cloacae; settings: E. cloacae strain 1446; with 100 μM of reserpine
Excerpt: as §2

[3] = Enterobacter cloacae, E. cloacae isolate 1404
[4] = Enterobacter cloacae, E. cloacae isolate 1405
[5] = Enterobacter cloacae, E. cloacae isolate 1430
[6] = Enterobacter cloacae, E. cloacae isolate 1431
[7] = Enterobacter cloacae, E. cloacae isolate 1445
[8] = Enterobacter cloacae, E. cloacae isolate 1446
[9] = Enterobacter cloacae, E. cloacae isolate 1447
[10] = Enterobacter cloacae, E. cloacae isolate 1448
[11] = Enterobacter cloacae, E. cloacae isolate 1454
[12] = Enterobacter cloacae, E. cloacae isolate 1455
[13] = Enterobacter cloacae, purified compound, Table 1
[14] = Enterococcus faecium, E. faecium isolate 1406
[15] = Enterococcus faecium, E. faecium isolate 1407
[16] = Enterococcus faecium, E. faecium isolate 1432
[17] = Enterococcus faecium, E. faecium isolate 1438
[18] = Enterococcus faecium, E. faecium isolate 1439
[19] = Enterococcus faecium, E. faecium isolate 1443
[20] = Enterococcus faecium, E. faecium isolate 1444
[21] = Enterococcus faecium, E. faecium isolate 1449
[22] = Enterococcus faecium, E. faecium isolate 1450
[23] = Enterococcus faecium, E. faecium isolate 1451
[24] = Enterococcus faecium, purified compound, Table 1

CCCCCCCN1C(=N)N(CCCC[C@H]2CNC(=N)N2CCc2cccc(C(F)(F)F)c2)C[C@@H]1CCCC [Compound 1]
5 µM: MIC (Enterobacter cloacae; [4]) | MIC (Enterobacter cloacae; [6]) | MIC (Enterobacter cloacae; [9])
strongly inhibited growth: effect on growth, combined with reserpine (P. aeruginosa [1]; P. aeruginosa isolate 1420, 2 μM compound plus 100 μM reserpine)
20: stacked score activity, 100/MIC, E (Enterobacter cloacae) | stacked score activity, 100/MIC, E (Enterococcus faecium)
no effect: effect on growth, agent alone (P. aeruginosa [1]; P. aeruginosa isolate 1420, 100 μM of reserpine or 2 μM of compound 1 individually)
3 µM: MIC (Enterobacter cloacae; [5]) | MIC (Enterobacter cloacae; [7]) | MIC (Enterobacter cloacae; [10]) | MIC (Enterobacter cloacae; [11])
10 µM: concentration inhibiting 90% of isolates (Enterobacter cloacae)
7 µM: MIC (Enterobacter cloacae; [8])
2 µM: MIC (Enterobacter cloacae; [3]) | MIC (Enterobacter cloacae; [12]) | MIC (Enterococcus faecium; [14]) | MIC (Enterococcus faecium; [15]) | MIC (Enterococcus faecium; [16]) | MIC (Enterococcus faecium; [17]) | MIC (Enterococcus faecium; [18]) | MIC (Enterococcus faecium; [19]) | MIC (Enterococcus faecium; [20]) | MIC (Enterococcus faecium; [21]) | MIC (Enterococcus faecium; [22]) | MIC (Enterococcus faecium; [23])
1.63 µM: MIC (Enterobacter cloacae; [13]) | MIC (Enterococcus faecium; [24])

CCCC[C@H]1CN(CCCC[C@H]2CNC(=N)N2CCc2cccc(C(F)(F)F)c2)C(=N)N1CCCCC1CCCCC1 [Compound 2, (S)-4-butyl-3-(4-cyclohexylbutyl)-1-(4-((S)-2-imino-3-(3-(trifluoromethyl)phenethyl)imidazolidin-4-yl)butyl)imidazolidin-2-imine]
20: stacked score activity, 100/MIC, E (Enterobacter cloacae)
5 µM: concentration inhibiting 90% of isolates (Enterobacter cloacae)
2 µM: MIC (Enterobacter cloacae; [3]) | MIC (Enterobacter cloacae; [4]) | MIC (Enterobacter cloacae; [5]) | MIC (Enterobacter cloacae; [6]) | MIC (Enterobacter cloacae; [7]) | MIC (Enterobacter cloacae; [11]) | MIC (Enterobacter cloacae; [12]) | concentration inhibiting 70% of strains (Enterobacter cloacae) | MIC (Enterococcus faecium; [14]) | MIC (Enterococcus faecium; [15]) | MIC (Enterococcus faecium; [16]) | MIC (Enterococcus faecium; [17]) | MIC (Enterococcus faecium; [18]) | MIC (Enterococcus faecium; [19]) | MIC (Enterococcus faecium; [20]) | MIC (Enterococcus faecium; [21]) | MIC (Enterococcus faecium; [22]) | MIC (Enterococcus faecium; [23])
1.52 µM: MIC (Enterobacter cloacae; [13]) | MIC (Enterococcus faecium; [24])
50: stacked score activity, 100/MIC, E (Enterococcus faecium)
3 µM: MIC (Enterobacter cloacae; [9]) | MIC (Enterobacter cloacae; [10])
7 µM: MIC (Enterobacter cloacae; [8])

CCCCCCCN1C(=N)N(CCCC[C@H]2CNC(=N)N2CCC23CC4CC(CC(C4)C2)C3)C[C@@H]1CCCC [Compound 19]
8 fold: increase in MIC after serial passage (P. aeruginosa [2])
2.0 µM: MIC (Enterobacter cloacae; E. cloacae isolate 1404) | MIC (Enterobacter cloacae; E. cloacae isolate 1405) | MIC (Enterobacter cloacae; E. cloacae isolate 1431) | MIC (Enterobacter cloacae; E. cloacae isolate 1447) | MIC (Enterobacter cloacae; E. cloacae isolate 1448) | MIC (Enterobacter cloacae; E. cloacae isolate 1454) | MIC (Enterobacter cloacae; E. cloacae isolate 1455) | MIC (Enterococcus faecium; E. faecium isolate 1406) | MIC (Enterococcus faecium; E. faecium isolate 1407) | MIC (Enterococcus faecium; E. faecium isolate 1432) | MIC (Enterococcus faecium; E. faecium isolate 1438) | MIC (Enterococcus faecium; E. faecium isolate 1439) | MIC (Enterococcus faecium; E. faecium isolate 1443) | MIC (Enterococcus faecium; E. faecium isolate 1444) | MIC (Enterococcus faecium; E. faecium isolate 1449) | MIC (Enterococcus faecium; E. faecium isolate 1450) | MIC (Enterococcus faecium; E. faecium isolate 1451)
3.0 µM: MIC (Enterobacter cloacae; E. cloacae isolate 1430) | MIC (Enterobacter cloacae; E. cloacae isolate 1445)
20: stacked score activity, 100/MIC, E (Enterobacter cloacae)
5 µM: concentration inhibiting 90% of isolates (Enterobacter cloacae)
33: stacked score activity, 100/MIC, E (Enterococcus faecium)
5.0 µM: MIC (Enterobacter cloacae; E. cloacae isolate 1446)
2 µM: concentration inhibiting 70% of strains (Enterobacter cloacae)
1.66 µM: MIC (Enterobacter cloacae; purified compound, Table 1) | MIC (Enterococcus faecium; purified compound, Table 1)
complete inhibition of growth: effect on growth, paired with reserpine (P. aeruginosa [1]; P. aeruginosa strain 1414, with reserpine)

CCCCCCCN1C(=N)N(CCCC[C@H]2CNC(=N)N2CCCCC2CCCCC2)C[C@@H]1CC1CCCCC1 [Compound 16]
8 fold: increase in MIC after serial passage (P. aeruginosa [2])
33: stacked score activity, 100/MIC, E (Enterococcus faecium)
1.62 µM: MIC (Enterobacter cloacae; [13]) | MIC (Enterococcus faecium; [24])
2 µM: MIC (Enterobacter cloacae; [3]) | MIC (Enterobacter cloacae; [4]) | MIC (Enterobacter cloacae; [5]) | MIC (Enterobacter cloacae; [6]) | MIC (Enterobacter cloacae; [7]) | MIC (Enterobacter cloacae; [9]) | MIC (Enterobacter cloacae; [10]) | MIC (Enterobacter cloacae; [11]) | MIC (Enterobacter cloacae; [12]) | concentration inhibiting 90% of isolates (Enterobacter cloacae) | MIC (Enterococcus faecium; [14]) | MIC (Enterococcus faecium; [15]) | MIC (Enterococcus faecium; [16]) | MIC (Enterococcus faecium; [17]) | MIC (Enterococcus faecium; [18]) | MIC (Enterococcus faecium; [19]) | MIC (Enterococcus faecium; [20]) | MIC (Enterococcus faecium; [21]) | MIC (Enterococcus faecium; [22]) | MIC (Enterococcus faecium; [23])
complete inhibition of growth: effect on growth, in combination with reserpine (K. pneumoniae)
20: stacked score activity, 100/MIC, E (Enterobacter cloacae)
5 µM: MIC (Enterobacter cloacae; [8])

CCCCCCCN1C(=N)N(CCCC[C@H]2CNC(=N)N2CCc2cccc(C(F)(F)F)c2)C[C@@H]1CC1CCCCC1 [Compound 7]
2 µM: MIC (Enterobacter cloacae; [3]) | MIC (Enterobacter cloacae; [4]) | MIC (Enterobacter cloacae; [5]) | MIC (Enterobacter cloacae; [6]) | MIC (Enterobacter cloacae; [7]) | MIC (Enterobacter cloacae; [9]) | MIC (Enterobacter cloacae; [10]) | MIC (Enterobacter cloacae; [11]) | MIC (Enterobacter cloacae; [12]) | concentration inhibiting 90% of isolates (Enterobacter cloacae) | MIC (Enterococcus faecium; [14]) | MIC (Enterococcus faecium; [15]) | MIC (Enterococcus faecium; [16]) | MIC (Enterococcus faecium; [17]) | MIC (Enterococcus faecium; [18]) | MIC (Enterococcus faecium; [19]) | MIC (Enterococcus faecium; [20]) | MIC (Enterococcus faecium; [21]) | MIC (Enterococcus faecium; [22]) | MIC (Enterococcus faecium; [23])
1.52 µM: MIC (Enterobacter cloacae; [13]) | MIC (Enterococcus faecium; [24])
5 µM: MIC (Enterobacter cloacae; [8])
complete inhibition of growth: effect on growth, in combination with reserpine (E. cloacae)
33: stacked score activity, 100/MIC, E (Enterococcus faecium)
20: stacked score activity, 100/MIC, E (Enterobacter cloacae)
